Results on 38 molecules are retold here after patent US20160158200A1, “Combinations of Hepatitis C Virus Inhibitors” (priority 2013, published 2016).

This test concerns HCV genotype-1a variant with glutamine 30 changed to glutamate in the NS5A protein. Type of test: cell-based. As to conditions: test compound titrated with BMS-790052 fixed at 200 nM; genotype 1a Q30E replicon. In a few lines:
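Synergy was assessed by combining several fixed amounts of an NS5A-targeting compound with a titration of the second compound of interest.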

Bounds are passed on as bounds.

As for `Cc1cc(-c2ccc(-c3c[nH]c([C@@H](NC(=O)C4(C)CCCCC4)C(C)C)n3)cc2)ccc1-c1c[nH]c([C@@H](NC(=O)C2(C)CCCCC2)C(C)C)n1.O=C(O)C(F)(F)F` [Compound N-79], the “Fold-Synergistic 1a (Q30E)” value is more than 100 fold.
For `CC(C)OC(=O)NC(C)(C)C(=O)N[C@H](c1nc(-c2ccc(-c3ccc(-c4c[nH]c([C@@H](NC(=O)C(C)(C)NC(=O)OC(C)C)C(C)(C)C)n4)cc3)cc2)c[nH]1)C(C)(C)C` [Compound Q-3], the “Fold-Synergistic 1a (Q30E)” value is given as more than 100 fold.
The figure for `CC(C)(C(=O)N[C@H](c1nc(-c2ccc(-c3ccc(-c4c[nH]c([C@@H](NC(=O)C(C)(C)C(F)F)C(C)(C)C)n4)cc3)cc2)c[nH]1)C(C)(C)C)C(F)F` [Compound P-32] is more than 100 fold; for `CC(C)[C@H](NC(=O)C(c1ccccc1)c1ccccc1)c1ncc(-c2ccc(-c3ccc(-c4cnc([C@@H](NC(=O)C(c5ccccc5)c5ccccc5)C(C)C)[nH]4)cc3)cc2)[nH]1` [Compound S-12] it is more than 100 fold.
Take `O=C(OCc1ccccc1)N1CCC[C@H]1c1ncc(-c2ccc(-c3ccc(-c4cnc([C@@H]5CCCN5C(=O)OCc5ccccc5)[nH]4)cc3)cc2)[nH]1` [Compound S-216]: the “Fold-Synergistic 1a (Q30E)” value is given as more than 10 fold.
Consider `CC(C)(C)[C@H](NC(=O)C1CCC(=O)CC1)c1nc(-c2ccc(-c3ccc(-c4c[nH]c([C@@H](NC(=O)C5CCC(=O)CC5)C(C)(C)C)n4)cc3)cc2)c[nH]1` [Compound W-173], for which the “Fold-Synergistic 1a (Q30E)” value is given as more than 100 fold.
`CC(C)[C@H](NC(=O)C1CCCCO1)c1ncc(-c2ccc(-c3ccc(-c4cnc([C@@H](NC(=O)C5CCCCO5)C(C)C)[nH]4)cc3)cc2)[nH]1` (single isomer, unassigned) [Compound Y-57]: the “Fold-Synergistic 1a (Q30E)” value is recorded as more than 100 fold.
For the molecule `CC(C)[C@H](NC(=O)C1(F)CCCCC1)c1ncc(-c2ccc(-c3ccc(-c4cnc([C@@H](NC(=O)C5(F)CCCCC5)C(C)C)[nH]4)cc3)cc2)[nH]1` [Compound Y-30], the “Fold-Synergistic 1a (Q30E)” value is reported as more than 100 fold.
The result for `COc1cnc(C(=O)N2CCC[C@H]2c2ncc(-c3ccc(-c4ccc(-c5cnc([C@@H]6CCCN6C(=O)c6ncc(OC)c7ccccc67)[nH]5)cc4)cc3)[nH]2)c2ccccc12` [Compound S-199] reads more than 100 fold; that for `CC(O)(CC1CC1)C(=O)N[C@H](c1nc(-c2ccc(-c3ccc(-c4cnc([C@@H](NC(=O)C(C)(O)CC5CC5)C(C)(C)C)[nH]4)cc3)cc2)c[nH]1)C(C)(C)C` (some centres unmarked) [Compound B-162], more than 100 fold.
Turning to `C#CCOC(=O)N[C@@H](C(=O)N[C@H](c1ncc(-c2ccc(-c3ccc(-c4cnc([C@@H](NC(=O)[C@H](NC(=O)OCC#C)C(C)C)C(C)C)[nH]4)cc3)cc2)[nH]1)C(C)C)C(C)C` [Compound S-252], the “Fold-Synergistic 1a (Q30E)” value is more than 100 fold.
The result for `COCCC(=O)N[C@H](c1ncc(-c2ccc(-c3ccc(-c4cnc([C@@H](NC(=O)CCOC)C(C)C)[nH]4)cc3)cc2)[nH]1)C(C)C` [Compound S-51] reads more than 10 fold; that for `CC(C)(C)[C@H](NC(=O)C1CCCCO1)c1nc(-c2ccc(-c3ccc(-c4c[nH]c([C@@H](NC(=O)C5CCCCO5)C(C)(C)C)n4)cc3)cc2)c[nH]1` (some centres unmarked) [Compound Y-5], more than 100 fold; that for `COC(C)(C)C(=O)N[C@H](c1ncc(-c2ccc(-c3ccc(-c4cnc([C@@H](NC(=O)C(C)(C)OC)C(C)C)[nH]4)cc3)cc2)[nH]1)C(C)C` [Compound P-69], more than 100 fold.
As for `COC(=O)NC(C(=O)NC(c1nc(-c2ccc(-c3ccc(-c4c[nH]c(C(NC(=O)C(NC(=O)OC)C5CC(C)OC(C)C5)C(C)(C)C)n4)cc3)cc2)c[nH]1)C(C)(C)C)C1CC(C)OC(C)C1` [Compound L-72], the “Fold-Synergistic 1a (Q30E)” value is listed as more than 10 fold.
In the case of `CC(C)[C@H](NC(=O)C(F)F)c1ncc(-c2ccc(-c3ccc(-c4cnc([C@@H](NC(=O)C(F)F)C(C)C)[nH]4)cc3)cc2)[nH]1` [Compound S-11], the “Fold-Synergistic 1a (Q30E)” value was more than 100 fold.
For the molecule `CC(C)N(C(=O)C(=O)N[C@H](c1nc(-c2ccc(-c3ccc(-c4c[nH]c([C@@H](NC(=O)C(=O)N(C(C)C)C5CC5)C(C)(C)C)n4)cc3)cc2)c[nH]1)C(C)(C)C)C1CC1` [Compound W-49], the “Fold-Synergistic 1a (Q30E)” value was more than 100 fold.
In the case of `CC(C)(C)OC(=O)NC1(C(=O)N[C@H](c2nc(-c3ccc(-c4ccc(-c5c[nH]c([C@@H](NC(=O)C6(NC(=O)OC(C)(C)C)CC6(F)F)C(C)(C)C)n5)cc4)cc3)c[nH]2)C(C)(C)C)CC1(F)F` (single isomer, unassigned) [Compound W-15], the “Fold-Synergistic 1a (Q30E)” value was more than 100 fold.
With `CC(C)(C)[C@H](NC(=O)C1(C(=O)N2CCC(F)(F)CC2)CC1)c1nc(-c2ccc(-c3ccc(-c4c[nH]c([C@@H](NC(=O)C5(C(=O)N6CCC(F)(F)CC6)CC5)C(C)(C)C)n4)cc3)cc2)c[nH]1` [Compound P-148], the “Fold-Synergistic 1a (Q30E)” value is more than 100 fold.
The figure for `CC(C)N(CC(F)(F)F)C(=O)C(=O)N[C@H](c1nc(-c2ccc(-c3ccc(-c4c[nH]c([C@@H](NC(=O)C(=O)N(CC(F)(F)F)C(C)C)C(C)(C)C)n4)cc3)cc2)c[nH]1)C(C)(C)C` [Compound W-66] is more than 100 fold; for `CC(C)(C)OC(=O)NC1CCCCC1C(=O)N[C@H](c1nc(-c2ccc(-c3ccc(-c4c[nH]c([C@@H](NC(=O)C5CCCCC5NC(=O)OC(C)(C)C)C(C)(C)C)n4)cc3)cc2)c[nH]1)C(C)(C)C` (single isomer, unassigned) [Compound W-23A] it is more than 100 fold; for `CC(=O)NC1(C(=O)N[C@H](c2nc(-c3ccc(-c4ccc(-c5c[nH]c([C@@H](NC(=O)C6(NC(C)=O)CCCCC6)C(C)(C)C)n5)cc4)cc3)c[nH]2)C(C)(C)C)CCCCC1` [Compound W-252] it is more than 100 fold.
The result for `CC(C)[C@H](NC(=O)C(=O)c1ccccc1OC(F)F)c1ncc(-c2ccc(-c3ccc(-c4cnc([C@@H](NC(=O)C(=O)c5ccccc5OC(F)F)C(C)C)[nH]4)cc3)cc2)[nH]1` [Compound P-122] reads more than 100 fold; that for `CC(C)[C@H](NC(=O)C(C)(C)c1ccccc1)c1ncc(-c2ccc(-c3ccc(-c4cnc([C@@H](NC(=O)C(C)(C)c5ccccc5)C(C)C)[nH]4)cc3)cc2)[nH]1` [Compound S-47], more than 100 fold.
On to `CC(C)(C)[C@H](NC(=O)c1cccc(Cl)c1)c1ncc(C#Cc2ccc3cc(-c4cnc([C@@H](NC(=O)c5cccc(Cl)c5)C(C)(C)C)[nH]4)ccc3c2)[nH]1` [Compound B3], for which the “Fold-Synergistic 1a (Q30E)” value is reported as more than 100 fold.
Turning to `CC(C)(C)C(NC(=O)C1CC(=O)N(c2ccccc2O)C1)c1nc(-c2ccc(-c3ccc(-c4c[nH]c(C(NC(=O)C5CC(=O)N(c6ccccc6O)C5)C(C)(C)C)n4)cc3)cc2)c[nH]1` (mixture of isomers) [Compound S-265], the “Fold-Synergistic 1a (Q30E)” value is more than 100 fold.
Consider `COC1(C(=O)NC(c2nc(-c3ccc(-c4ccc(-c5c[nH]c(C(NC(=O)C6(OC)CCOC6)C(C)C)n5)cc4)cc3)c[nH]2)C(C)C)CCOC1` (mixture of isomers) [Compound N-159], for which the “Fold-Synergistic 1a (Q30E)” value is more than 100 fold.
The result for `CC(O)(CF)C(=O)N[C@H](c1nc(-c2ccc(-c3ccc(-c4c[nH]c([C@@H](NC(=O)C(C)(O)CF)C(C)(C)C)n4)cc3)cc2)c[nH]1)C(C)(C)C` (single isomer, unassigned) [Compound N-139A] reads more than 100 fold.
The figure for `O=C(NC(c1nc(-c2ccc(-c3ccc(-c4c[nH]c(C(NC(=O)C5CCC(F)(F)CC5)C5(C(F)(F)F)CC5)n4)cc3)cc2)c[nH]1)C1(C(F)(F)F)CC1)C1CCC(F)(F)CC1.O=C(O)C(F)(F)F` (single isomer, unassigned) [Compound N-109B] is more than 100 fold; for `C=CC(C)(C)C(=O)N[C@H](c1nc(-c2ccc(-c3ccc(-c4cnc([C@@H](NC(=O)C(C)(C)C=C)C(C)(C)C)[nH]4)cc3)cc2)c[nH]1)C(C)(C)C.O=C(O)C(F)(F)F` [Compound B-166] it is more than 100 fold; for `CC(C)(C)OC(=O)N1CC(C)(C(=O)NC(c2nc(-c3ccc(-c4ccc(-c5c[nH]c(C(NC(=O)C6(C)CN(C(=O)OC(C)(C)C)C6)C(C)(C)C)n5)cc4)cc3)c[nH]2)C(C)(C)C)C1` [Compound L-63] it is more than 100 fold.
Turning to `COC(=O)N(C)C(C)(C)C(=O)N[C@H](c1nc(-c2ccc(-c3ccc(-c4c[nH]c([C@@H](NC(=O)C(C)(C)N(C)C(=O)OC)C(C)(C)C)n4)cc3)cc2)c[nH]1)C(C)(C)C` [Compound L-18], the “Fold-Synergistic 1a (Q30E)” value is more than 100 fold.
Regarding `CC(C)[C@H](NC(=O)C1CCOCC1)c1ncc(-c2ccc(-c3ccc(-c4cnc([C@@H](NC(=O)C5CCOCC5)C(C)C)[nH]4)cc3)cc2)[nH]1` [Compound P-59], the “Fold-Synergistic 1a (Q30E)” value is more than 100 fold.
For the molecule `CC(C)COC(=O)N[C@@H](C(=O)N[C@H](c1ncc(-c2ccc(-c3ccc(-c4cnc([C@@H](NC(=O)[C@H](NC(=O)OCC(C)C)C(C)C)C(C)C)[nH]4)cc3)cc2)[nH]1)C(C)C)C(C)C` [Compound S-246], the “Fold-Synergistic 1a (Q30E)” value is on record as more than 100 fold.
Take `CC(C)(C)CN[C@H](c1nc(-c2ccc(-c3ccc(-c4c[nH]c([C@@H](NCC(C)(C)C)C(C)(C)C)n4)cc3)cc2)c[nH]1)C(C)(C)C` [Compound L-1]: the “Fold-Synergistic 1a (Q30E)” value is on record as more than 100 fold.
The figure for `CC(C)[C@H](NC(=O)C(C)(C)Oc1ccc(Cl)cc1)c1ncc(-c2ccc(-c3ccc(-c4cnc([C@@H](NC(=O)C(C)(C)Oc5ccc(Cl)cc5)C(C)C)[nH]4)cc3)cc2)[nH]1` [Compound P-65] is more than 100 fold; for `CC1([C@H](NC(=O)C2CCC(F)(F)CC2)c2ncc(-c3ccc(-c4ccc(-c5cnc([C@@H](NC(=O)C6CCC(F)(F)CC6)C6(C)CCC6)[nH]5)cc4)cc3)[nH]2)CCC1` [Compound Y-38] it is more than 100 fold.
The figure for `CC(C)[C@H](NC(=O)c1c(F)cc(F)cc1F)c1ncc(-c2ccc(-c3ccc(-c4cnc([C@@H](NC(=O)c5c(F)cc(F)cc5F)C(C)C)[nH]4)cc3)cc2)[nH]1` [Compound S-92] is more than 100 fold.
